According to patent US10064876B2, “Bile acid receptor agonism for treating addiction” (Vanderbilt University, priority 2015, dated 2018):
Entries after “also recorded” stand apart in the source; their conditions may differ.

Columns and labels:
[1] = body weight during chronic OCA treatment; format: in vivo, mouse; conditions: OCA 10 mg/kg orally vs vehicle, throughout the 4-week study
Text: Jellies were composed of gelatin (10% w/v), sucralose (18.5% w/v), artificial strawberry flavoring (8% v/v); beta cyclodextrin (2% w/v) in water. […] Jellies containing vehicle contained the same amount of beta cyclodextrin. Mice were given jellies by voluntary oral administration six days per week for four weeks. They were given the jellies between 3 pm and 6 pm by placing each mouse into an open field chamber containing the jelly. To ensure that mice consumed the jellies consistently, all mice were initially trained to eat jellies without drug for 5 days prior to drug/vehicle jelly administration. Mice in this group underwent behavioral testing for cocaine conditioned place preference after 2 weeks of chronic drug administration. During this time, drug administrations were continued until sacrifice.

[2] = test system: AMPA receptor-mediated excitatory post-synaptic currents (EPSCs) in NAc medium spiny neurons; test: whole-cell electrophysiology, EPSC amplitude in ex vivo brain slices; format: cell-based, mouse; conditions: 10 μM OCA (FIG. 29B legend), perfused 10 min, holding at −70 mV, 50 μM picrotoxin
Method: Ex vivo mouse sagittal brain slices were prepared as previously described (Grueter, B. A., et al. Nat Neurosci 13:1519-1525 (2010)). Briefly, mice were acutely anesthetized using isoflurane and sacrificed by rapid decapitation. Brains were submerged in ice-cold sucrose dissecting solution (80 mM NaCl, 2.5 mM KCl, 7 mM MgCl2, 0.5 mM CaCl2, 1.25 mM NaH2PO4, 25 mM NaHCO3, 75 mM sucrose, and 25 mM glucose) and 250 μm thick slices were cut using the Leica 200VT Vibratome. Slices were allowed to recover for 10-15 min at 35° C. in an N-methyl D-glucamine (NMDG) based recovery solution (2.5 mM KCl, 20 mM HEPES, 1.2 mM NaH2PO4, 25 mM glucose, 93 mM NMDG, 30 mM NaHCO3, 5 mM sodium ascorbate, 3 mM sodium pyruvate, 10 mM MgSO4, and 0.5 mM CaCl2) before being transferred to a room temperature ACSF holding chamber for one hour prior to use. ASCF used for holding chamber and recordings contained 120 mM NaCl, 2.5 mM KCL, 1.5 mM MgCl2, 2.5 mM CaCl2, 1 mM NaH2PO4, 25 mM NaHCO3, and 10 mM glucose. […] Evoked responses were elicited by electrical stimulation via the Iso-flex stimulation isolator and recorded using the Axopatch Multiclamp 700B amplifier and Axon Digidata 1550 low-noise data acquisition digitizer. […] Peak EPSC amplitude was measured for the duration of the experiment and normalized to the first 10 min. […]

C57BL/6J mice [3] = test: cocaine-induced locomotion in OCA-treated mice; format: in vivo, mouse; conditions: OCA 10 mg/kg orally, chronic, vs vehicle
Method: CPP was performed as previously described, with modifications (Graham D L, et al. (2013). Mol Psychiatry. 18(9):961-962). Briefly, mice were weighed and then acclimated to the testing room for at least 20 minutes prior to testing each day. During the first phase (pre-conditioning, day 1), mice were placed on the grid floor side of a two chamber apparatus. For 30 min, the mice had free access to both sides of the apparatus, which each contained their own distinct visual and tactile cues. During the second phase (conditioning, days 2-9), on alternate days mice were restricted to one side or the other of the apparatus for 30 min by use of a dividing door. Just prior to being placed in the chamber, each mouse was given an injection of either cocaine (20 mg/kg, i.p.) or saline (i.p.). […] Only the first 20 minutes of pre-conditioning and post-conditioning was used in the calculation of % CPP. […] Following 20 minutes of acclimation to the testing room, mice were initially placed in open field chambers for 60 min and ambulatory distance was recorded. […] Finally, mice were removed again and injected with cocaine (20 mg/kg, i.p.) before being placed back in the chamber for an additional 120 minutes. […] Jellies were composed of gelatin (10% w/v), sucralose (18.5% w/v), artificial strawberry flavoring (8% v/v); beta cyclodextrin (2% w/v) in water. […]

C57BL/6J mice [4] = test: cocaine conditioned place preference (CPP) in mice under chronic OCA; format: in vivo, mouse; conditions: OCA 10 mg/kg orally six days a week for four weeks vs vehicle, CPP started after 2 weeks, cocaine 20 mg/kg i.p.
Method: CPP was performed as previously described, with modifications (Graham D L, et al. (2013). Mol Psychiatry. 18(9):961-962). Briefly, mice were weighed and then acclimated to the testing room for at least 20 minutes prior to testing each day. During the first phase (pre-conditioning, day 1), mice were placed on the grid floor side of a two chamber apparatus. For 30 min, the mice had free access to both sides of the apparatus, which each contained their own distinct visual and tactile cues. During the second phase (conditioning, days 2-9), on alternate days mice were restricted to one side or the other of the apparatus for 30 min by use of a dividing door. […] During this time, the mouse's locomotor activity was measured by infrared sensors and used to determine cocaine-induced locomotor sensitization. […] Thus mice were given full access to both compartments and their time spent on each side was measured. % CPP was calculated as the time spent on the cocaine-paired side between post-conditioning minus the time spent on the cocaine-paired side during pre-conditioning divided by the time spent on the saline-paired side during pre-conditioning. […] Locomotor sensitization to cocaine was determined by the ambulatory distance on days when mice received cocaine during the conditioning phase of CPP. […]

[5] = phase III clinical trial, hepatic steatosis; cited from earlier work
FXR = conditions: Sayin 2013; Li 2013; cited from earlier work
Lipoprotein lipase (Lpl) = test: hepatic gene expression by RNA-seq; format: in vivo, mouse; conditions: liver
Method: The transcriptional sequencing was implemented with modifications of the standard Illumina methods (Bentley, D. R. et al. Nature 456, 53-59 (2008)). Sequencing reactions were performed using the Illumina HiSeq (v3 chemistry). Initial QC quantification of the extracted total RNA was done by using Qubit Fluorometer (Invitrogen). Agilent 2100 Bioanalyzer was used to check the quality of the extracted RNA from both the samples. About 30 ng of total RNA was amplified using the NuGEN Technologies Ovation RNA amplification kit optimized for RNA sequencing. The output is double-stranded complementary DNA (cDNA) that was sheared using the Covaris instrument to an average insert size of 300 bp. The sheared DNA entered the standard Illumina TruSeq library preparation protocol at the standard end-repair step. […] Following LM-PCR, the samples were purified and assessed for quality using the Agilent Bioanalyzer. Final quantitation was performed using the KAPA Biosystems Kapa Library Quant kit. […]
Multiple stages of quality control (QC) on sequencing data was carried out. […] Raw data were aligned with TopHat 2 against mouse MM10 genome, and read count data were obtained using HTSeq, DESeq (Anders, S. & Huber, W. Genome Biol. 11, R106 (2010)), edgeR (Robinson, M. D., et al. Bioinformatics 26, 139-140 (2010)) and baySeq (Hardcastle, T. J. & Kelly, K. A. BMC Bioinformatics 11, 422 (2010)). […]

CC[C@H]1[C@@H](O)[C@@H]2[C@H](CC[C@]3(C)[C@@H]([C@H](C)CCC(=O)O)CC[C@@H]23)[C@@]2(C)CC[C@@H](O)C[C@@H]12 [OCA, (4R)-4-[(3R,5S,6R,7R,8S,9S,10S,13R,14S,17R)-6-Ethyl-3,7-dihydroxy-10,13-dimethyl-2,3,4,5,6,7,8,9,11,12,14,15,16,17-tetradecahydro-1H-cyclopenta[a]phenanthren-17-yl]pentanoic acid]
body weight [1]: No differences
EPSC amplitude in NAc medium spiny neurons [2]: robust depression; also recorded: reduced
cocaine-induced locomotion (C57BL/6J mice [3]): impaired
cocaine CPP (preference for the cocaine-paired chamber, % CPP) (C57BL/6J mice [4]): decreased; also recorded: reduced preference
cocaine CPP (preference for the cocaine-paired chamber, % CPP) (C57BL/6J mice [4]; listed as 6-ECDCA): significantly reduced
clinical efficacy [5]: clinical efficacy
safety profile [5]: excellent safety profile

C[C@H](CCC(=O)NCCS(=O)(=O)O)[C@H]1CC[C@H]2[C@@H]3[C@@H](O)[C@@H](O)[C@@H]4C[C@H](O)CC[C@]4(C)[C@H]3CC[C@]12C [TβMCA, 5β-cholanic acid-3α,6β,7β-triol-N-[2-sulphoethyl]-amide]
FXR antagonist activity (FXR): potent FXR antagonist

COC(=O)/C=C/c1cccc(N(Cc2ccc(-c3ccc(N(C)C)cc3)cc2)C(=O)C2CCCCC2)c1 [fexaramine]
Lpl hepatic expression, increase relative to DIO controls (Lipoprotein lipase (Lpl)): 2.4 fold
